Measurements reported in US11555036B2, “FGFR4 inhibitor, preparation method therefor and pharmaceutical use thereof” (Abbisko Therapeutics Co., Ltd., priority 2016, dated 2023).

Key:
[1] = target: FGFR4 (Homo sapiens, UniProt P22455); test: FGFR4 Caliper Assay (in vitro biochemical kinase analysis of FGFR4); conditions: read-out: Enzymatic activity FGFR4 IC50
Summary of the method: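 Kinase reaction at 30° C for 40 min in 50 mM HEPES pH 7.5, 16 mM MgCl2, 1 mM DTT, 0.6% DMSO, stopped with EDTA. Phosphorylated and unphosphorylated fluorescent peptides separated by Caliper microfluidic mobility shift. IC50 by non-linear regression of percent inhibition.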

[2] = system: Huh7 hepatocellular carcinoma cells; test: FGFR4 cell proliferation experiment, Cell Titer Glo (CTG); format: cell-based; conditions: Homo sapiens, Huh-7, 72 h, HuH-7 cells, 3 days; for IC50: concentration leading to absolute half growth inhibition; for EC50: concentration leading to half maximal growth inhibition
Summary of the method: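 Cells treated with 5-fold serial dilutions starting at 10 μM for 3 days at 37° C, 5% CO2. Proliferation/survival quantified as cellular ATP by CellTiter-Glo luminescence.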

Chain of FGFR4 (P22455 22-802): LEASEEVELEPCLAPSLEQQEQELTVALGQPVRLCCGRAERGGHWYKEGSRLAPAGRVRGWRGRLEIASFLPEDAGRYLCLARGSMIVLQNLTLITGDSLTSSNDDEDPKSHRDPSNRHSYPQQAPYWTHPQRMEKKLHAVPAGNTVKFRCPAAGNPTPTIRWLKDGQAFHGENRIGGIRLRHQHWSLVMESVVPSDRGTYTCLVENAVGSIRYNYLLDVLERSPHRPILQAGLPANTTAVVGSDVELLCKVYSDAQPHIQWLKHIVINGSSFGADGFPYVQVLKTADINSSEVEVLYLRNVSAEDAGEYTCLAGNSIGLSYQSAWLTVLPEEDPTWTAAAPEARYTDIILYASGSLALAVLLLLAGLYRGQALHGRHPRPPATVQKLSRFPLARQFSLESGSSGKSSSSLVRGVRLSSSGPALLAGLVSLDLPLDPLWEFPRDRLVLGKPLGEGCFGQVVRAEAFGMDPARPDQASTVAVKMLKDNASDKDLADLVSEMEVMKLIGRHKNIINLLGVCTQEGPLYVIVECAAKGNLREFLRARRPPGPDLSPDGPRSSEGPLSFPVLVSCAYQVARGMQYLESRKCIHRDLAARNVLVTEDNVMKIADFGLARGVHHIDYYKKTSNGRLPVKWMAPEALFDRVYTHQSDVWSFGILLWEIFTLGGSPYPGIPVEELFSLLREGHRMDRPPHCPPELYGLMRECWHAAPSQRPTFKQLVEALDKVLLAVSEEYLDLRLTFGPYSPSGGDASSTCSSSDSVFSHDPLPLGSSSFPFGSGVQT

## [2H]C([2H])([2H])Nc1nc(-c2c(Cl)c(OC([2H])([2H])[2H])cc(OC([2H])([2H])[2H])c2Cl)cc2cnc(N[C@@H]3COC[C@@H]3NC(=O)C=C)nc12 [Example 766, N-((3R,4S)-4-((6-(2,6-dichloro-3,5-bis(methoxy-d3)phenyl)-8-((methyl-d3)amino)pyrido[3,4-d]pyrimidin-2-yl)a-mino)tetrahydrofuran-3-yl)acrylamide]
[1]
  IC50: 0.0083 µM
[2]
  IC50: 0.0279 µM
  EC50: 0.0198 µM

## C=CC(=O)Nc1cccc(C)c1Nc1cc2c(=O)n(CCOC)c(-c3c(Cl)c(OC)cc(OC)c3Cl)nc2cn1 [Example 11, N-(2-((2-(2,6-dichloro-3,5-dimethoxyphenyl)-3-(2-methoxyethyl)-4-oxo-3,4-dihydropyrido[3,4-d]pyrimidin-6-yl)amino)-3-methylphenyl) acrylamide]
[1]
  IC50: 0.101 µM
[2]
  IC50: 4.72 µM
  EC50: 4.72 µM

## C=CC(=O)N[C@H]1COC[C@H]1Nc1ncc2cc(-c3c(Cl)c(OC)cc(OC)c3Cl)nc(N3CC4CC(C3)O4)c2n1 [Example 762, N-((3R,4S)-4-((8-(6-oxa-3-aza-bicyclo[3.1.1]heptan-3-yl)-6-(2,6-di-chloro-3,5-dimethoxyphenyl)pyrido[3,4-d]pyrimidin-2-yl)amino)tetrahydro-furan-3-yl)acrylamide]
[1]
  IC50: 0.0052 µM
[2]
  IC50: 0.0042 µM
  EC50: 0.0032 µM

## C=CC(=O)N[C@H]1COC[C@H]1Nc1ncc2cc(-c3c(F)c(OC)cc(OC)c3F)nc(N3CC(F)(F)C3)c2n1 [Example 768, N-((3R,4S)-4-((6-(2,6-difluoro-3,5-dimethoxyphenyl)-8-(3,3-difluoro-azetidin-1-yl)pyrido[3,4-d]pyrimi-din-2-yl)amino)tetrahydro-furan-3-yl)acrylamide]
[1]
  IC50: 0.004 µM
[2]
  IC50: 0.0125 µM
  EC50: 0.0099 µM

## C=CC(=O)N[C@H]1COC[C@H]1Nc1ncc2cc(-c3c(F)c(OC)cc(OC)c3F)nc(N3CCC(C)(O)C3)c2n1 (stereo partly drawn) [Example 772, N-((3R,4S)-4-((6-(2,6-difluoro-3,5-dimethoxyphenyl)-8-(3-hydroxy-3-methylpyrrolidin-1-yl)pyrido[3,4-d]py-rimidin-2-l)amino)tetrahydrofuran-3-yl)acrylamide]
[1]
  IC50: 0.0029 µM
[2]
  IC50: 0.0081 µM
  EC50: 0.0068 µM

## C=CC(=O)Nc1cccc(C)c1Nc1cc2c(OC)nc(-c3c(Cl)c(OC)cc(OC)c3Cl)cc2cn1 [Example 9, N-(2-((7-(2,6-dichloro-3,5-dimethoxyphenyl)-5-dimethoxy-2,6-naphthyridin-3-yl)amino)-3-methylphenyl)acryl-amide]
[1]
  IC50: 0.138 µM
[2]
  IC50: 1.05 µM
  EC50: 0.089 µM

## C=CC(=O)N[C@H]1COC[C@H]1Nc1cc2c(NCC3CC3)nc(-c3c(Cl)c(OC)cc(OC)c3Cl)cc2cn1 [Example 126, N-((3R,4S)-4-((5-((cyclopropylmethyl)amino)-7-(2,6-dichloro-3,5-dimethoxy-phenyl)-2,6-naphthyridin-3-yl)amino)tetrahydrofuran-3-yl)acrylamide]
[1]
  IC50: 0.022 µM
[2]
  IC50: 0.0537 µM
  EC50: 0.0315 µM

## C=CC(=O)N[C@H]1COC[C@H]1Nc1ncc2cc(-c3c(Cl)c(OC)cc(OC)c3Cl)nc(C)c2n1 [Example 606, N-((3R,4S)-4-((6-(2,6-dichloro-3,5-di-methoxyphenyl)-8-methylpyrido[3,4-d]pyrimidin-2-yl)amino)tetrahydro-furan-3-yl)acrylamide]
[1]
  IC50: 0.0234 µM
[2]
  IC50: 0.0411 µM
  EC50: 0.0257 µM

## C=CC(=O)N[C@H]1CCOC[C@H]1Nc1ncc2cc(-c3c(F)c(OC)cc(OC)c3F)nc(N3CCC(OC)CC3)c2n1 [Example 795, N-((3S,4S)-3-((6-(2,6-difluoro-3,5-dimethoxyphenyl)-8-(4-methoxy-piperidin-1-yl)pyrido[3,4-d]pyrimidin-2-yl)amino)tetrahydro-2H-pyran-4-yl)acrylamide]
[1]
  IC50: 0.0075 µM
[2]
  IC50: 0.0118 µM
  EC50: 0.0095 µM

## C=CC(=O)N[C@H]1COC[C@H]1Nc1ncc2cc(-c3c(Cl)c(OC)cc(OC)c3Cl)nc(NCCNS(C)(=O)=O)c2n1 [Example 430, N-((3R,4S)-4-((6-(2,6-dichloro-3,5-dimethoxyphenyl)-8-((2-(methyl-sulfonamido)ethyl)a-mino)pyrido[3,4-d]pyri-midin-2-yl)amino)tetrahydrofuran-3-yl)acrylamide]
[1]
  IC50: 0.0191 µM
[2]
  IC50: 0.0935 µM
  EC50: 0.032 µM

## C=CC(=O)N[C@H]1COC[C@H]1Nc1ncc2cc(-c3c(Cl)c(OC)cc(OC)c3Cl)nc(-c3cnn(C)c3)c2n1 [Example 629, N-((3R,4S)-4-((6-(2,6-dichloro-3,5-di-methoxyphenyl)-8-(1-methyl-1H-pyrazol-4-yl)pyrido[3,4-d]pyrimidin-2-yl)amino)tetrahydrofuran-3-yl)acryl-amide]
[1]
  IC50: 0.0029 µM
[2]
  IC50: 0.004 µM
  EC50: 0.0026 µM

## C=CC(=O)N[C@H]1COC[C@H]1Nc1ncc2cc(-c3c(Cl)c(OC)cc(OC)c3Cl)nc(NC3CC(F)(F)C3)c2n1 [Example 452, N-((3R,4S)-4-((6-(2,6-dichloro-3,5-di-methoxyphenyl)-8-((3,3-difluorocyclo-butyl)amino)pyrido[3,4-d]pyrimidin-2-yl)amino)tetrahydrofuran-3-yl) acrylamide]
[1]
  IC50: 0.0422 µM
[2]
  IC50: 0.0533 µM
  EC50: 0.0203 µM

## C=CC(=O)N[C@H]1COC[C@H]1Nc1ncc2cc(-c3c(Cl)c(OC)cc(OC)c3Cl)nc(Cl)c2n1 [Example 753, N-((3R,4S)-4-((8-chloro-6-(2,6-di-chloro-3,5-dimethoxyphenyl)py-rido[3,4-d]pyrimidin-2-yl)amino)tetrahydro-furan-3-yl)acrylamide]
[1]
  IC50: 0.019 µM
[2]
  IC50: 0.212 µM
  EC50: 0.13 µM

## C=CC(=O)N[C@H]1CCOC[C@H]1Nc1ncc2cc(-c3c(F)c(OC)cc(OC)c3F)nc(N3CCC(OC)C3)c2n1 (stereo partly drawn) [Example 794, N-((3S,4S)-3-((6-(2,6-difluoro-3,5-dimethoxyphenyl)-8-(3-methoxy-pyrrolidin-1-yl)pyrido[3,4-d]py-rimidin-2-yl)amino)tetrahydro-2H-pyran-4-yl)acrylamide]
[1]
  IC50: 0.0048 µM
[2]
  IC50: 0.0069 µM
  EC50: 0.0055 µM

## C=CC(=O)N[C@H]1COC[C@H]1Nc1ncc2cc(-c3c(F)c(OC)cc(OC)c3F)nc(-c3cnn(C)c3)c2n1 [Example 637, N-((3R,4S)-4-((6-(2,6-difluoro-3,5-dimethoxyphenyl)-8-(1-methyl-1H-py-razol-4-yl)pyrido[3,4-d]pyrimidin-2-yl)amino)tetrahydrofuran-3-yl)acryl-amide]
[1]
  IC50: 0.0042 µM
[2]
  IC50: 0.0173 µM
  EC50: 0.0101 µM

## C=CC(=O)N[C@H]1CCOC[C@H]1Nc1ncc2cc(-c3c(F)c(OC)cc(OC)c3F)nc(N3CC(OC)C3)c2n1 [Example 775, N-((3S,4S)-3-((6-(2,6-difluoro-3,5-dimethoxyphenyl)-8-(3-methoxyazetidin-1-yl)pyrido[3,4-d]pyrimidin-2-yl)amino)tetrahydro-2H-pyran-4-yl)acrylamide]
[1]
  IC50: 0.0089 µM
[2]
  IC50: 0.0278 µM
  EC50: 0.0208 µM

## C=CC(=O)N[C@H]1COC[C@H]1Nc1ncc2cc(-c3c(Cl)c(OC)cc(OC)c3Cl)nc(NCCCN(C)C)c2n1 [Example 432, N-((3R,4S)-4-((6-(2,6-dichloro-3,5-di-methoxyphenyl)-8-((3-(dimethylami-no)propyl)amino)pyrido[3,4-d]pyrimi-din-2-yl)amino)tetrahydrofuran-3-yl) acrylamide]
[1]
  IC50: 0.106 µM
[2]
  IC50: 0.934 µM
  EC50: 0.396 µM
